According to US11331370B2, “Combination product for the prevention of sexually transmitted infections” (priority 2014, dated 2022):

What was measured:
HIV-1 = conditions: p24 ELISA and RT; cited from earlier work
HSV-2 G strain [1] = experiment: Plaque inhibition assay in Vero cells, inhibition of virus entry; assay type: cell-based; conditions: 4° C. then 37° C. 2 h, citric acid buffer, FIG. 2B
HSV-2 G strain [2] = experiment: Plaque inhibition assay in Vero cells, inhibition of virus adsorption; assay type: cell-based; conditions: 4° C., plaque forming units, FIG. 2A
HIV-1ADA-M (R5 virus) = experiment: MAGI assay in TZM-bl cells, anti-HIV activity; assay type: cell-based; conditions: 72 h, FIG. 1A
Experimental: (§1) FIG. 1 includes logarithmic plots which show the percentage of virus replication in the presence of GRFT (nM). Data in FIG. 1 A and FIG. 1 B confirm that GRFT has potent activity against HIV. […] In FIG. 1A, anti-HIV activity was tested in TZM-bl cells using the MAGI assay (R Begay O, et al. AIDS Research and Human Retroviruses, 2011 Sep. 1; 27(9):1019-24) and the laboratory strains HIV-1MN (X4 virus) and HIV-1ADA-M ([…]). In FIG. 1B, anti-HIV activity was tested in PBMC (Trkola A, et al., J Virol. 1999 November; 73(11):8966-74) using the laboratory strains HIV-1NL4-3. In FIG. 1C, anti-HPV activity was evaluated in HeLa cells using a luciferase reporter gene assay (Buck C B, et al. PLoS Pathog. 2006 Jul. 1; 2(7):e69) and testing the antiviral activity against three different HPV PsV types (16, 18 and 45). In FIGS. 1A, 1B, 1C, IC50 values are depicted as a vertical dotted line with the 95% confidence interval and were calculated using a dose-response-inhibition analysis on GraphPad Prism v 5.0 software. All the non-toxic GRFT concentrations were tested in triplicates and are shown with the mean±SD.
(§2) The activity of GRFT against HIV was verified in standard in vitro assays. […]

HIV-1MN (X4 virus) = experiment: MAGI assay in TZM-bl cells, anti-HIV activity; assay type: cell-based; conditions: 72 h, FIG. 1A
Experimental: as §1, §2

HPV18 PsV = experiment: HPV pseudovirus luciferase assay in HeLa cells; assay type: cell-based; conditions: 72 h, FIG. 1C
Experimental: as §1
(§3) The activity of GRFT against HPV pseudoviruses was also investigated. […]

HPV45 PsV = experiment: HPV pseudovirus luciferase assay in HeLa cells; assay type: cell-based; conditions: 72 h, FIG. 1C
Experimental: as §1, §3

HPV16 PsV = experiment: HPV pseudovirus luciferase assay in HeLa cells; assay type: cell-based
Experimental: The activity of GRFT against HPV pseudoviruses was also investigated. […] All the non-toxic GRFT concentrations were tested in triplicates. The graphics show the mean±SD.
Medium-treated (virus only) cells were included as a control. […] In order to assay for anti-HPV activity, HeLa cells were treated with varying equipotent doses of GRFT, C or GRFT+C (based on IC50 of each API) at 37° C. and immediately exposed to HPV16 PsV (triplicates). Medium-treated (virus only) cells were included as a control. The luciferase assay was performed 72 h after infection. […] As provided therein, “CI” refers to a quantitative measure of the degree of drug interaction as follows: additive effect (CI=1); synergism (CI <1), or antagonism (CI >1). […]

HIV-1NL4-3 = experiment: Anti-HIV activity in PBMC, p24 ELISA; assay type: cell-based; conditions: activated PBMC, p24 ELISA day 7, FIG. 1B
Experimental: as §1
Anti-HIV activity was also tested in peripheral blood mononucleated cells (PBMC) using the laboratory strains HIV-1NL4-3 according to conventional methods. See Trkola A, et al., J Virol. 1999 November; 73(11):8966-74. […]

HSV-2 G strain [3] = experiment: Dye-uptake PrestoBlue antiviral assay in Vero cells; assay type: cell-based; conditions: 6 day incubation, combination value based on API with bold font
Experimental: We previously reported that the combination of ZA and CG results in a potent antiviral synergy against HSV-2. Fernandez-Romero, J. A., et al., Antimicrobial agents and chemotherapy, 2012. 56(1): p. 358-68. […] Briefly, HSV-2 G strain and different concentrations of each compound or their combinations (based on equipotency IC50 ratios) were pre-incubated at 37° C. and added to Vero cells followed by a 6 day incubation at 37° C., 5% CO2 and 98% humidity. A dye-uptake PrestoBlue assay was performed to test antiviral activity. Relative fluorescent units (RFU) were measured at 570 nm for excitation and 600 nm for emission. The % of virus replication was calculated using the following formula: % Virus replication=[(O.Dcell control−O.Dcompound)/(O.Dcell control−O.Dvirus control)]*100. IC50 values were calculated using a dose-response-inhibition analysis on GraphPad Prism v 5.0 software. As provided therein, ¶ IC50 or % IC50 reduction values are based on API with bold font; NA=Not applicable.

HIV-192BR014 = experiment: Anti-HIV combination activity in activated PBMCs, p24 ELISA, Chou-Talalay; assay type: cell-based; conditions: PBMC, HIV-1 92BR014, p24 day 7; combination value refers to the API in bold font (GRFT); read-out: Dm, median-effect dose (IC50)
Experimental: Briefly, in order to test anti-HIV activity, activated PBMCs were treated with varying equipotent doses (based on IC50 of each API) of GRFT, ZA or GRFT+ZA at 37° C. 1 h prior to exposure to 100 TCID50 of HIV-192BR014 in the presence of the same doses of each compound or combination (triplicates). Medium-treated (virus only) cells were included as a control. Eighteen hours later the cells were washed and plated in the presence of medium with IL-2 (with the only exception of those samples treated with ZA, where ZA was replaced). This step was repeated on day 4 and the supernatants collected on day 7 to measured HIV-1 p24 levels by ELISA. […] Combination indexes (CI) were estimated using the Chou-Talalay method (Chou, T. C. Pharmacological Reviews, 2006, 58(3): p. 621-81) with the Cacusyn for Windows software (Biosoft, Cambridge, United Kingdom). As provided therein, “CI” refers to a quantitative measure of the degree of drug interaction as follows: additive effect (CI=1); synergism (CI <1), or antagonism (CI >1). “Dm” refers to the median-effect dose (IC50); “m” refers to a measurement of the sigmoidicity of the dose-effect curve, and also represents the slope of the median-effect plot; and “r” refers to the linear correlation coefficient of the median-effect plot. […]

For `[Cl-].[Cl-].[Zn+2]` [zinc chloride], the HIV-1 production (HIV-1) is listed as “inhibited HIV-1 production”.

For Griffithsin [GRFT], the “inhibition of virus entry” value (HSV-2 G strain [1]) was “prevents HSV-2 entry”, the “inhibition of virus adsorption” value (HSV-2 G strain [2]) was “does not prevent viral adsorption” and the “anti-HIV activity in vitro” value (HIV-1ADA-M (R5 virus)) was “potent anti-HIV activity”. The “anti-HIV activity in vitro” value (HIV-1MN (X4 virus)) was “potent anti-HIV activity”, the “in vitro activity against HPV18 PsV” value (HPV18 PsV) was “moderate in vitro activity” and the “in vitro activity against HPV45 PsV” value (HPV45 PsV) was “moderate in vitro activity”. The “in vitro activity against HPV16 PsV” value (HPV16 PsV; HeLa cells, luciferase assay, 72 h, FIG. 1C) was “moderate in vitro activity”, the IC50 (HPV16 PsV; HeLa, HPV16 PsV, luciferase 72 h, combination value refers to the API in bold font, read-out: Dm, median-effect dose (IC50)) was 32.7 µM and the “anti-HIV activity in vitro” value (HIV-1NL4-3) was “potent anti-HIV activity”. For the same compound, the “IC50 (95% confidence interval)” value (HSV-2 G strain [3]) was 19 µg/mL and the IC50 (HIV-192BR014) was 0.0004 µM.

In the case of `CC(=O)[O-].CC(=O)[O-].[Cd+2]` [cadmium acetate], the HIV-1 production (HIV-1) is listed as “inhibited HIV-1 production”.

In the case of `[Cl][Hg][Cl]` [mercury chloride], the HIV-1 production (HIV-1) is listed as “inhibited HIV-1 production”.

For `CC(=O)[O-].CC(=O)[O-].[Zn+2]` [ZA, zinc acetate], the “IC50 (95% confidence interval)” value (HSV-2 G strain [3]) was 58.2 µg/mL and the IC50 (HIV-192BR014) was 48.3 µM.
